Measurements: patent US7477053B2, “Detection of electromagnetic fields” (priority 1994, dated 2009)
“Also recorded” adds a separate entry of the source.

Tests used:
[1] = test system: rat liver Microsomes; test: Magnetometer detection of substrate metabolism by rat liver microsomes; settings: for Magnetometer chart response to substrate, RLM / Magnetometer chart response to substrate, RLM + NADPH: rat liver microsomes 1 mg protein/ml; for Magnetometer chart response to substrate, RLM: no NADPH stated; for Magnetometer chart response to substrate, RLM + NADPH: NADPH present
[2] = test system: pig liver chromatin; test: Magnetometer detection of substrate metabolism by pig liver chromatin
[3] = test system: pig liver nuclei; test: Magnetometer detection of substrate response in pig liver nuclei; assay type: in vitro ADME; settings: pig liver nuclei 1 mg protein/ml, without NADPH

Structure (SMILES) | Metabolized by rat liver Microsomes ([1]; Non-NADPH-dependent) | Metabolized by pig liver chromatin ([2]; NADPH-dependent) | Metabolized by rat liver Microsomes ([1]; NADPH-dependent) | other results
Nc1ncnc2c1ncn2[C@@H]1O[C@H](CO)[C@@H](O)[C@H]1O [adenosine] | + |  |  | Magnetometer chart response to substrate, RLM [1]: No further change in slope
Cc1c(N(C)C)c(=O)n(-c2ccccc2)n1C [aminopyrine] |  | − | + | 
CN(C)CCC=C1c2ccccc2CCc2ccccc21 [amitryptyline] |  | + | + | 
Nc1ccccc1 [aniline] |  | − | + | 
C[C@]12CCC(=O)C=C1CC[C@@H]1[C@@H]2[C@@H](O)C[C@@]2(C)[C@H]1CC[C@]2(O)C(=O)CO [cortisol] |  | − | + | 
C[C@]12CC[C@@H]3c4ccc(O)cc4CC[C@H]3[C@@H]1CC[C@@H]2O [estridiol, β-estradiol] |  | − |  | 
CNCCC(Oc1ccc(C(F)(F)F)cc1)c1ccccc1 (stereo not shown) [fluoxetine] |  |  | + | 
NCCc1c[nH]cn1 [histamine] | + |  |  | Metabolized by pig liver chromatin ([2]; Non-NADPH-dependent): +
N[C@@H](Cc1c[nH]cn1)C(=O)O [histidine] | + |  |  | Metabolized by pig liver chromatin ([2]; Non-NADPH-dependent): ++; Magnetometer chart response to substrate, CHROM ([2]; chromatin from pig liver nuclei 1 mg protein/ml, without NADPH, listed as HD): PBT (50) B 10 CHROM Response to HD; also recorded: PGT 100 CHROM (700) B. Response to HD; Magnetometer chart response to substrate, RLM + NADPH [1]: RLM + NADPH. Two response to HD, short latency in both.; Magnetometer chart response to substrate, RLM [1]: Enhanced slope; Magnetometer chart response to substrate, PLN [3]: PLN. Response to HD.
N[C@H](CO)Cc1c[nH]cn1 [histidinol] | + |  |  | Metabolized by pig liver chromatin ([2]; Non-NADPH-dependent): +
CC(=O)[C@H]1CC[C@H]2[C@@H]3CCC4=CC(=O)CC[C@]4(C)[C@H]3CC[C@]12C [progresterone, progesterone] |  |  | + | 
NCCCCN [putrescine] |  | + | + | Magnetometer chart response to substrate, RLM + NADPH [1]: Increased slope; Magnetometer chart response to substrate, RLM + NADPH ([1]; listed as PU): PU (10) NADPH (10) response seen at end of record; also recorded: Response to PU; Magnetometer chart response to substrate, PLN [3]: PLN. No response to PUTR until NADPH added.
C[C@]12CC[C@H]3[C@@H](CCC4=CC(=O)CC[C@@]43C)[C@@H]1CC[C@@H]2O [testosterone] |  | + | − | Magnetometer chart response to substrate, CHROM in presence of NADPH ([2]; chromatin from pig liver nuclei, NADPH present): CHROM. Response to TEST in presence of NADPH
